The results in this text go back to patent US11524966B1 (Valo Early Discovery, Inc., priority 2017, dated 2022).

In this test the target is T1, USP25 (USP25-His6, Boston Biochem E-546) (Homo sapiens, UniProt Q9UHP3).
T1 construct: His6; purchased Boston Biochem E-546
T1 sequence (Q9UHP3 1-1055): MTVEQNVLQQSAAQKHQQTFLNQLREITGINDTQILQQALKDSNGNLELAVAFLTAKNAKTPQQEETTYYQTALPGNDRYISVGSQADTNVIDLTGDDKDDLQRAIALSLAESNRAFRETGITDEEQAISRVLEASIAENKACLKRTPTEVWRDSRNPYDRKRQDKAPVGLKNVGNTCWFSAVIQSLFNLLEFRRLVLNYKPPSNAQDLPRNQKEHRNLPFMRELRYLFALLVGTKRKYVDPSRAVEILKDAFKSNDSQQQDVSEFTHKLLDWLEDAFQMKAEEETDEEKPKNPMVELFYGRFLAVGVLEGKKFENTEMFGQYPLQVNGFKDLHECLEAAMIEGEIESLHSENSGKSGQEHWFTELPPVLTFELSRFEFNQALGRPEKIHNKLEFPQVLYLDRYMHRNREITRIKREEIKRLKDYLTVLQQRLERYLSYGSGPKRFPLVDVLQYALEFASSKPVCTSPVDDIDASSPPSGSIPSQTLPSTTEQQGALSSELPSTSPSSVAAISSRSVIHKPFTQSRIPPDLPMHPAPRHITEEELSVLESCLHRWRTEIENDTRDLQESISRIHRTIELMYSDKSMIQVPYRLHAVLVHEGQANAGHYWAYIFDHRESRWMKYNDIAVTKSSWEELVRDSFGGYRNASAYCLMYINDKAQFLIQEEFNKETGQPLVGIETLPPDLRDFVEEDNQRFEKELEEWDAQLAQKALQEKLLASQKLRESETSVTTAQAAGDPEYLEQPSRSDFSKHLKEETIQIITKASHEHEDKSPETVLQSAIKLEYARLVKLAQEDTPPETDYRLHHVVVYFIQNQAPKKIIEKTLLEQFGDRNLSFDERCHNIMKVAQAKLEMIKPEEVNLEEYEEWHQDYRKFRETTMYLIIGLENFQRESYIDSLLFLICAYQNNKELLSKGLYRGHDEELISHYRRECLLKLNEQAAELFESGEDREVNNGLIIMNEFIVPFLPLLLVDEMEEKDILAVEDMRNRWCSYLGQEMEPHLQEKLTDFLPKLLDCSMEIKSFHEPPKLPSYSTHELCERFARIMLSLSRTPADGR
The test can be described thus: Ubiquitin-Rhodamine 110 Assay for USP25 Activity, Example A-2. In kind it is biochemical. Particulars: Ubiquitin-Rhodamine 110 assay, Example A-2; read-out: USP25 A-2 IC50 range. The method, boiled down: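 Read-out: Rh110 fluorescence (ex 485, em 535 nm) after 45 min RT turnover of 25 nM Ub-Rh110 by 75 pM USP25-His6, quenched with 10 mM citric acid. Compounds at 25 μM–1.3 nM, preincubated 30 min with enzyme. IC50 from 4-parameter logistic fit.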
As a reminder, the IC50 is the midpoint of a concentration-inhibition curve. With `Cc1cnc2c(N)c(C(=O)N[C@H]3CCc4nc(N5CC6CCC(C5)N6)ccc4C3)sc2n1` [Example 23-13, 7-amino-N-{(6S)-2-{3,8-diazabicyclo[3.2.1]octan-3-yl}-5,6,7,8-tetrahydroquinolin-6-yl]-3-methylthieno[2,3-b]pyrazine-6-carboxamide], the IC50 was in the range of 200 to 2000 nM. Regarding `Cc1ccc2c(N)c(C(=O)N[C@H]3COc4cc([C@H]5CCNCC5(F)F)ccc4C3)sc2n1` [Example 69, 3-amino-N-((R)-7-((R)-3,3-difluoropiperidin-4-yl)chroman-3-yl)-6-methylthieno[2,3-b]pyridine-2-carboxamide], the concentration for half-maximal inhibition (IC50) lay in the range of 50 to 200 nM. The same measure for `Cc1ccc2c(N)c(C(=O)N[C@H]3CCc4nc(N5CC6CCC(C5)N6)cc(F)c4C3)sc2n1` [Example 23-18, N-((6S)-2-(3,8-diazabicyclo[3.2.1]octan-3-yl)-4-fluoro-5,6,7,8-tetrahydroquinolin-6-yl)-3-amino-6-methylthieno[2,3-b]pyridine-2-carboxamide]: 200 to 2000 nM; for `Cc1ccc2c(N)c(C(=O)N[C@H]3CCc4nc(N5CC6CC(C5)N6)ccc4C3)sc2n1` [Example 23-10, 3-amino-N-[(6S)-2-{3,6-diazabicyclo[3.1.1]heptan-3-yl}-5,6,7,8-tetrahydroquinolin-6-yl]-6-methylthieno[2,3-b]pyridine-2-carboxamide]: 200 to 2000 nM. Consider `COC[C@@H]1CN(c2ccc3c(n2)CC[C@H](NC(=O)c2sc4nc(C)ccc4c2N)C3)C[C@@H]1N` (single isomer, unassigned) [Example 24-1], for which the IC50 was above 2000 nM. The result for `Cc1cnc2c(N)c(C(=O)N[C@@H]3COc4cc(N5CC6CCC(C5)N6)c(F)cc4C3)sc2n1` (single isomer, unassigned) [Example 41] reads above 2000 nM; that for `Cc1ccc2c(N)c(C(=O)N[C@H]3Cc4ccc(N5CCNCC5)nc4C4(CC4)C3)sc2n1` (single isomer, unassigned) [Example 31-4, 3-amino-6-methyl-N-[(6′R)-2′-(piperazin-1-yl)-6′,7′-dihydro-5′H-spiro[cyclopropane-1,8′-quinoline]-6′-yl]thieno[2,3-b]pyridine-2-carboxamide], 200 to 2000 nM.

As for `Cc1cnc2c(N)c(C(=O)N[C@H]3COc4c(C#N)c(N5CC6CC(C5)N6)cc(F)c4C3)sc2n1` [Example 77, N-((3R)-7-(3,6-diazabicyclo[3.1.1]heptan-3-yl)-8-cyano-5-fluorochroman-3-yl)-7-amino-3-methylthieno[2,3-b]pyrazine-6-carboxamide], the 50% inhibitory concentration (IC50) fell in the range of 200 to 2000 nM. The result for `O=C(N[C@H]1COc2cc(N3CCNCC3)ccc2C1)c1cnc2c(c1)CC[C@@H]2O` [Example 58, (S)-7-hydroxy-N-((R )-7-(piperazin-1-yl)chroman-3-yl)-6,7-dihydro-5H-cyclopenta[b]pyridine-3-carboxamide] reads above 2000 nM.

As to `O=C(N[C@H]1COc2cc(N3CCNCC3)ccc2C1)c1cnc2c(c1)CC[C@H]2O` [Example 57, (R)-7-hydroxy-N-((R)-7-(piperazin-1-yl)chroman-3-yl)-6,7-dihydro-5H-cyclopenta[b]pyridine-3-carboxamide], the IC50 is above 2000 nM.

Consider `Cc1ccc2c(N)c(C(=O)N[C@H]3COc4cc([C@H]5CCNC[C@@H]5O)ccc4C3)sc2n1` [Example 64, 3-amino-N-((R)-7-((3R,4R)-3-hydroxypiperidin-4-yl)chroman-3-yl)-6-methylthieno[2,3-b]pyridine-2-carboxamide], for which the IC50 lay in the range of 50 to 200 nM.

Regarding `Cc1cnc2c(N)c(C(=O)N[C@H]3COc4c(C#N)c(N5CCNCC5)cc(F)c4C3)sc2n1` [Example 60, (R)-7-amino-N-(8-cyano-5-fluoro-7-(piperazin-1-yl)chroman-3-yl)-3-methylthieno[2,3-b]pyrazine-6-carboxamide], the concentration for half-maximal inhibition (IC50) is 200 to 2000 nM.
